We go through 20 compounds from patent US20220033406A1, “C[…] AS ANTI-VIRALS” (priority 2018, published 2022).

For orientation: EC50 means the concentration that produces a half-maximal response.

Assay [1] deals with VSV-G pseudotyped HIV NL4-3. Kind of assay: microbe, parasite or virus in culture. The class given is cell-based.
For assay [2], the system named is HBV. Briefly: Inhibition of HBV in HepG2.117 cells (anti-HBV activity, qPCR). Particulars: HBV viral DNA copy numbers in supernatant by qPCR. The class given is cell-based.
Where [3] appears, read: Human immunodeficiency virus 1, NL43, 72 h, read-out: HIV EC50 (uM).
[4] abbreviates: Hepatitis B virus, HepG2.117, 96 h, Table 4 phosphoramidate prodrugs.
Setting [5] is: Hepatitis B virus, HepG2.117, 96 h, Table 2 nucleosides.

Where two headings read alike, the source gives them in different places.

Consider `C=C1[C@@H](n2ccc(N)nc2=O)C[C@H](O)[C@@]1(C#N)COP(=O)(N[C@@H](C)C(=O)OC(C)C)Oc1ccccc1` (stereo partly drawn) [Example 42, Isopropyl ((((1S,3S,5S)-3-(4-amino-2-oxopyrimidin-1(2H)-yl)-1-cyano-5-hydroxy-2-methylenecyclopentyl)methoxy)(phenoxy)phosphoryl)-L-alaninate], for which the figures for the EC50 in assay [1] (setting [3]) and in assay [2] (setting [4]) were 10.4 µM and more than 10 µM, respectively.

As to `C=C1[C@@H](n2cc(C)c(=O)[nH]c2=O)C[C@H](O)[C@@]1(F)CO` [Example 3, 1-((1S,3S,4S)-3-Fluoro-4-hydroxy-3-(hydroxymethyl)-2-methylenecyclopentyl)-5-methylpyrimidine-2,4(1H,3H)-dione], the values for the 50% effective concentration (EC50) in assay [1] (setting [3]) and in assay [2] (setting [5]) were more than 33.3 µM and more than 10 µM, respectively.

`C=C1[C@@H](n2cnc3c(=O)[nH]c(N)nc32)C[C@H](O)[C@@]1(F)CO` [Example 4, 2-Amino-9-((1S,3S,4S)-3-fluoro-4-hydroxy-3-(hydroxymethyl)-2-methylenecyclopentyl)-1,9-dihydro-6H-purin-6-one]: the EC50 in assay [1] (setting [3]) is 0.0356 µM; in assay [2] (setting [5]), less than 0.0009 µM.

Take `C=C1[C@@H](n2cc(C)c(=O)[nH]c2=O)C[C@H](O)[C@]1(CO)CF` [Example 12, 1-((1S,3S,4S)-3-(fluoromethyl)-4-hydroxy-3-(hydroxymethyl)-2-methylenecyclopentyl)-5-methylpyrimidine-2,4(1H,3H)-dione]: the figures for the 50% effective concentration (EC50) in assay [1] (setting [3]) and in assay [2] (setting [5]) were more than 33.3 µM and more than 10 µM, respectively.

As to `C=C1[C@H](CO)[C@@H](O)C[C@@H]1n1ccc2c(=O)[nH]c(N)nc21` [Example 2, 2-Amino-7-((1S,3R,4S)-4-hydroxy-3-(hydroxymethyl)-2-methylenecyclopentyl)-3,7-dihydro-4H-pyrrolo[2,3-d]pyrimidin-4-one], the EC50 in assay [1] (setting [3]) was more than 33.3 µM; in assay [2] (setting [5]) it was more than 10 µM.

On to `C=C1[C@@H](n2cc(C)c(=O)[nH]c2=O)C[C@H](O)[C@@]1(C#N)CO` [Example 15, (1S,3S,5S)-5-Hydroxy-1-(hydroxymethyl)-3-(5-methyl-2,4-dioxo-3,4-dihydropyrimidin-1(2H)-yl)-2-methylenecyclopentane-1-carbonitrile], for which the results for the EC50 in assay [1] (setting [3]) and in assay [2] (setting [5]) were more than 33.3 µM and more than 10 µM, respectively.

Regarding `C=C1[C@@H](n2ccc(N)nc2=O)C[C@H](O)[C@@]1(C#N)CO` [Example 16, (1S,3S,5S)-3-(4-Amino-2-oxopyrimidin-1(2H)-yl)-5-hydroxy-1-(hydroxymethyl)-2-methylenecyclopentane-1-carbonitrile], the EC50 in assay [1] (setting [3]) is 5.83 µM; in assay [2] (setting [5]), more than 10 µM.

With `C=C1[C@@H](n2cnc3c(=O)[nH]c(N)nc32)C[C@H](O)[C@@]1(C#N)CO` [Example 18, (1S,3S,5S)-3-(2-Amino-6-oxo-1,6-dihydro-9H-purin-9-yl)-5-hydroxy-1-(hydroxymethyl)-2-methylenecyclopentane-1-carbonitrile], the EC50 came to 0.12 µM in assay [1] (setting [3]) and 0.0466 µM in assay [2] (setting [5]).

As for `C=C1[C@@H](n2cnc3c(N)ncnc32)C[C@H](O)[C@@]1(F)COP(=O)(N[C@@H](C)C(=O)OCC(C)(C)C)Oc1ccccc1` (stereo partly drawn) [Example 39, Neopentyl ((((1S,3S,5S)-3-(6-amino-9H-purin-9-yl)-1-fluoro-5-hydroxy-2-methylenecyclopentyl)methoxy)(phenoxy)phosphoryl)-L-alaninate], the values for the EC50 in assay [1] (setting [3]) and in assay [2] (setting [4]) were 0.0139 µM and 0.0003 µM, respectively.

As for `C=C1[C@@H](n2ccc(N)nc2=O)C[C@H](O)[C@]1(CO)CF` [Example 11, 4-Amino-1-((1S,3S,4S)-3-(fluoromethyl)-4-hydroxy-3-(hydroxymethyl)-2-methylenecyclopentyl)pyrimidin-2(1H)-one], the EC50 in assay [1] (setting [3]) amounted to 0.911 µM; in assay [2] (setting [5]), 9.18 µM.

As to `C=C1[C@@H](n2cnc3c(N)ncnc32)C[C@H](O)[C@@]1(F)CO` [Example 6, (1S,2S,4S)-4-(6-Amino-9H-purin-9-yl)-2-fluoro-2-(hydroxymethyl)-3-methylenecyclopentan-1-ol], the EC50 was 2.68 µM in assay [1] (setting [3]) and 0.0617 µM in assay [2] (setting [5]).

For the compound `C=C1[C@@H](n2cnc3c(N)ncnc32)C[C@H](O)[C@]1(CO)CF` [Example 13, (1S,2S,4S)-4-(6-Amino-9H-purin-9-yl)-2-(fluoromethyl)-2-(hydroxymethyl)-3-methylenecyclopentan-1-ol], the EC50 was 5.02 µM in assay [1] (setting [3]) and more than 5.53 µM in assay [2] (setting [5]).

On to `C=C1[C@@H](n2cnc3c(N)ncnc32)C[C@H](O)[C@]1(CO)CCl` [Example 14, (1S,2S,4S)-4-(6-Amino-9H-purin-9-yl)-2-(chloromethyl)-2-(hydroxymethyl)-3-methylenecyclopentan-1-ol], for which the concentration for a half-maximal effect (EC50) is 1.08 µM in assay [1] (setting [3]) and 3.45 µM in assay [2] (setting [5]).

Consider `C=C1[C@H](n2cnc3c(N)ncnc32)C[C@H](O)[C@]1(F)CO` [Example 7, (1S,2R,4R)-4-(6-Amino-9H-purin-9-yl)-2-fluoro-2-(hydroxymethyl)-3-methylenecyclopentan-1-ol], for which the EC50 was more than 33.3 µM in assay [1] (setting [3]) and more than 10 µM in assay [2] (setting [5]).

Turning to `C#C[C@]1(CO)C(=C)[C@@H](n2cnc3c(N)ncnc32)C[C@@H]1O` [Example 19, (1S,2R,4S)-4-(6-Amino-9H-purin-9-yl)-2-ethynyl-2-(hydroxymethyl)-3-methylenecyclopentan-1-ol], the 50% effective concentration (EC50) was 0.0665 µM in assay [1] (setting [3]) and more than 10 µM in assay [2] (setting [5]).

In the case of `C=C1[C@H](n2cnc3c(=O)[nH]c(N)nc32)C[C@H](O)[C@]1(F)CO` [Example 5, 2-Amino-9-((1R,3R,4S)-3-fluoro-4-hydroxy-3-(hydroxymethyl)-2-methylenecyclopentyl)-1,9-dihydro-6H-purin-6-one], the EC50 in assay [1] (setting [3]) is more than 33.3 µM; in assay [2] (setting [5]), 2.47 µM.

With `C=C1[C@@H](n2cnc3c(=O)[nH]c(N)nc32)C[C@H](O)[C@@]1(C#N)COP(=O)(N[C@@H](C)C(=O)OC(C)C)Oc1ccccc1` (single isomer, unassigned) [Example 43, Isopropyl ((R*)-(((1S,3S,5S)-3-(2-amino-6-oxo-1,6-dihydro-9H-purin-9-yl)-1-cyano-5-hydroxy-2-methylenecyclopentyl)methoxy)(phenoxy)phosphoryl)-L-alaninate], the concentration for a half-maximal effect (EC50) was 4.25 µM in assay [1] (read-out: HIV EC50) and 0.591 µM in assay [2] (96 h, Table 4 phosphoramidate prodrugs).

Take `C=C1[C@@H](n2cnc3c(N)ncnc32)C[C@H](O)[C@@]1(C#N)CO` [Example 17, (1S,3S,5S)-3-(6-Amino-9H-purin-9-yl)-5-hydroxy-1-(hydroxymethyl)-2-methylenecyclopentane-1-carbonitrile]: the EC50 in assay [1] (setting [3]) is 2.21 µM; in assay [2] (setting [5]) it was more than 10 µM.

On to `C=C[C@]1(CO)C(=C)[C@@H](n2cnc3c(N)ncnc32)C[C@@H]1O` [Example 20, (1S,2R,4S)-4-(6-Amino-9H-purin-9-yl)-2-(hydroxymethyl)-3-methylene-2-vinylcyclopentan-1-ol], for which the EC50 in assay [1] (setting [3]) is 0.547 µM; in assay [2] (setting [5]) it was more than 10 µM.

On to `C=C1[C@@H](n2ccc3c(N)ncnc32)C[C@H](O)[C@@]1(F)CO` [Example 1, (1S,2S,4S)-4-(4-Amino-7H-pyrrolo[2,3-d]pyrimidin-7-yl)-2-fluoro-2-(hydroxymethyl)-3-methylenecyclopentan-1-ol], for which, in assay [2] (setting [5]), the EC50 was found to be 0.0109 µM.
